How the values were obtained:
[1] = extracted from the literature; cited from earlier work
[2] = PBPK reverse modeling of nominal equivalent concentration (NEC), rat data
Experimental: The lipid content and albumin concentrations of the test media N2 and BHK medium were calculated on the basis of the available information provided by the suppliers (Fig. S2A). The data on rat plasma have been adopted from (Verwei et al. [2006]). The original references are (Barber et al. [1990]) for albumin and (DeJongh et al. [1997]) for lipids. Human plasma values were taken from (Gulden and Seibert [2003]). The original data on albumin are from (Lindup [1987]) and for lipids from (Patterson et al. [1988]). Total protein concentrations were calculated based on the assumption that the protein molar mass is similar to the one of albumin (66 kDa). Albumin was assumed to represent 60 and 48 % of the total serum proteins (mg/ml) in human and rat (Baker et al. [1979]; Busher [1990]) (Fig. S2A).
(a) Developmental toxicity (DT)—inducing concentrations were extrapolated from the in vivo study reported in the document by the Australian Therapeutic Goods Administration (Australian Therapeutic Goods Administration [2014]). […] (b) Toxicokinetic parameters of abiraterone in rats were extracted from the available report from the TGA (Australian Therapeutic Goods Administration [2014]). […] (c) The nominal in vitro concentrations equivalent to the concentration used in vivo were calculated using the value of total protein concentration instead of albumin concentration. […]
(c) The nominal in vitro concentrations equivalent to the concentration used in vivo in rats and humans (Cmax and Cavg) were determined assuming only binding to the specific drug-binding proteins (albumin and/or α1-acid glycoprotein) (Fig. S2D).

ESC-derived neurons = conditions: for In vitro EC20 in ESC-derived neurons: in vitro toxicity data expressed as EC20
Text: Fig. 1 Synopsis of experimental protocols. The impact of compounds on neural promoter activity (FLuc, Firefly Luciferase under the control of the Tα1 promoter), general promoter activity (RLuc, Renilla Luciferase under the control of the EF1α promoter), and amount of DNA (PI, propidium iodide fluorescence in cell homogenates) was investigated in undifferentiated mouse embryonic pluripotent stem cells (ESCs) and on ESC-derived neurons. Arrows indicate the time of measurement of the three parameters. a Protocol for testing compounds effects on ESCs. CGR8-2Luc cells were plated on gelatin-coated 96-well plates in maintenance medium (BHK21 medium containing 10 % FCS, L-glutamine, NEAA, P/S, and LIF). Twenty-four hours later, cells were exposed to compounds for forty-eight hours. b Protocol for testing compounds on ESC-derived neurons. CGR8-2Luc cells were co-cultured with MS5 cells to induce neural differentiation in DMEM medium containing 15 % KO-serum, NEAA, β-mercaptoethanol, and P/S. On day 5, cells were detached and seeded on polyornithine-coated plates in DMEM medium containing N2 supplement, bFGF, and P/S; compound exposure was from day 6 to day 8
To test compounds on ESC-derived neurons, neuronal differentiation was carried out as previously described (Suter et al. [2009]; Xu et al. [2014]). Briefly, CGR8-2Luc cells were seeded on irradiated bone marrow-derived stromal MS5 cells and cultivated for 4 days in DMEM medium containing 15 % Knock-out™ Serum Replacement, non-essential amino acids, beta-mercaptoethanol, and penicillin/streptomycin. At day 5, cells were then re-plated (3 × 10^5 cells/cm^2) on polyornithine-coated 96-well plates in N2 medium containing DMEM, N2 supplement, penicillin/streptomycin, and 10 ng/ml basic human fibroblast growth factor (bFGF) (Invitrogen). […] To assess toxicity of compounds on undifferentiated pluripotent stem cells (ESCs), CGR8-2Luc cells were plated at 45,000 cells/cm^2 on 0.1 % gelatin-coated dishes in BHK21 medium, supplemented with 10 % fetal calf serum, L-glutamine, non-essential amino acids, penicillin/streptomycin, and leukemia inhibitory factor (LIF). After 24 h, compounds were added and incubated for 48 h, before luciferase expression and PI fluorescence were analyzed. In all experiments, methylmercury was used as a positive control at a concentration of 5 µM.
Luciferase activities were measured with a Dual-Luciferase™ Reporter system kit. CGR8-2Luc ES cells were lysed in 96-well plates according to the manufacturer’s instructions. Luminescence measurements were performed on a Fluostar Optima reader. Luminescence counts were expressed as percentage of promoter activity normalized by comparison with the control wells treated by DMSO. […] parameters were measured in homogenates of ESCs and in ESC-derived neurons: (1) FLuc, reflecting the activity of early neural promoter Tα1. FLuc increases during neuronal differentiation. Many neurotoxic compounds may affect FLuc expression, either through impact on neuronal differentiation, through changes of neuronal gene expression, or through killing of neurons.
After measurement of luciferase activity, DNA quantity was determined by PI assay, as previously described (Xu et al. [2014]). […] After incubation, fluorescence intensity was measured on a Flexstation 3 microplate reader (Excitation: 544 nm ± 15 nm; Emission: 620 nm ± 15 nm). Results are expressed as percentage of control. […]

Row | SMILES | Kow (octanol:water partition coefficient) [1] | Free concentration in vivo ([2]; Cavg) | Total concentration in vivo (ECpl) ([2]; Cavg) | Free concentration in vivo ([2]; Cmax) | Total concentration in vivo (ECpl) ([2]; Cmax) | concentration affecting neural differentiation (decrease of neuronal and general promoter activities) (ESC-derived neurons; ESC-derived neurons, no change in cell number) | In vitro EC20 in ESC-derived neurons (ESC-derived neurons) | concentration up to which neurons were not affected (ESC-derived neurons)
1 | C[C@]12CC[C@H](O)CC1=CC[C@@H]1[C@@H]2CC[C@]2(C)C(c3cccnc3)=CC[C@@H]12 [Abiraterone] | 131826 | 1.68e-05 nM | 0.00401 µM | 0.00013 nM | 0.0309 µM | higher than 0.5 µM | 0.7 µM | –
2 | COC1=C2C[C@@H](C)C[C@H](OC)[C@H](O)[C@@H](C)/C=C(\C)[C@H](OC(N)=O)[C@@H](OC)/C=C\C=C(/C)C(=O)NC(=CC1=O)C2=O [Geldanamycin] | 417 | – | – | 8.91 nM | 2.23 µM | – | 0.001 µM | –
3 | [Br][Hg][Br] [Mercury bromide] | – | – | – | – | – | – | – | 5 µM
4 | C/C(O)=C(\C#N)C(=O)Nc1ccc(C(F)(F)F)cc1 [Teriflunomide] | 327 | 11.7 nM | 5.09 µM | 25.6 nM | 11.1 µM | – | 10 to 20 µM | –

Reference: article PMC5225183, “Fingerprinting of neurotoxic compounds using a mouse embryonic stem cell dual luminescence reporter assay” (Archives of Toxicology, 2016)
